Laboratory results: the NIST ThermoML archive (doi:10.1021/je020215j)
Numbers after ± are expanded uncertainties.

Conditions: Crystal

Nc1c[nH]c(=O)[nH]c1=O [2,4(1H,3H)-pyrimidinedione, 5-amino-]
Conditions	vapor or sublimation pressure [kPa]
433.11 K	1.941e-05 ± 2e-06
433.16 K	2.072e-05 ± 2.1e-06
436.7 K	2.56e-05 ± 2.6e-06
438.65 K	3.333e-05 ± 3.4e-06
440.48 K	3.89e-05 ± 3.9e-06
442.32 K	4.794e-05 ± 4.8e-06
444.14 K	5.231e-05 ± 5.2e-06
445.07 K	5.373e-05 ± 5.4e-06
445.96 K	6.018e-05 ± 6e-06
445.97 K	5.707e-05 ± 5.7e-06
447.76 K	6.664e-05 ± 6.7e-06
453.1 K	9.97e-05 ± 1e-05

O=[N+]([O-])c1cnc(O)nc1O [2,4-pyrimidinedione, 5-nitro-]
Conditions	vapor or sublimation pressure [kPa]
431.25 K	7.18e-06 ± 7.4e-07
433.14 K	8.41e-06 ± 8.6e-07
434.95 K	9.75e-06 ± 1e-06
434.98 K	1.014e-05 ± 1e-06
436.81 K	1.154e-05 ± 1.2e-06
438.63 K	1.3e-05 ± 1.3e-06
440.46 K	1.62e-05 ± 1.6e-06
442.17 K	2.096e-05 ± 2.1e-06
442.27 K	1.978e-05 ± 2e-06
445.93 K	2.924e-05 ± 2.9e-06
447.76 K	3.338e-05 ± 3.4e-06
453.11 K	6.104e-05 ± 6.1e-06

Cn1c(N)cc(=O)n(C)c1=O [6-amino-1,3-dimethyluracil]
Conditions	vapor or sublimation pressure [kPa]
401.59 K	9.9e-06 ± 1e-06
407.21 K	1.673e-05 ± 1.7e-06
409 K	1.845e-05 ± 1.9e-06
409.99 K	2.309e-05 ± 2.3e-06
410.8 K	2.478e-05 ± 2.5e-06
412.67 K	2.874e-05 ± 2.9e-06
412.82 K	3.133e-05 ± 3.1e-06
415.86 K	4.477e-05 ± 4.5e-06
416.43 K	3.968e-05 ± 4e-06
418.41 K	5.345e-05 ± 5.4e-06
420.22 K	6.082e-05 ± 6.1e-06
425.66 K	0.0001053 ± 1.1e-05

Cn1c(N)cc(=O)[nH]c1=O [6-amino-1-methyluracil]
Conditions	vapor or sublimation pressure [kPa]
456.84 K	2.824e-05 ± 2.8e-06
458.65 K	3.188e-05 ± 3.2e-06
459.55 K	3.807e-05 ± 3.8e-06
462.22 K	4.621e-05 ± 4.6e-06
463.15 K	5.015e-05 ± 5e-06
464.07 K	5.429e-05 ± 5.5e-06
466.07 K	6.44e-05 ± 6.5e-06
466.1 K	6.38e-05 ± 6.4e-06
467.87 K	7.507e-05 ± 7.5e-06
468.75 K	7.967e-05 ± 8e-06
469.67 K	8.597e-05 ± 8.6e-06
470.56 K	9.083e-05 ± 9.1e-06

Nc1cc(O)nc(O)n1 [6-aminouracil]
Conditions	vapor or sublimation pressure [kPa]
478.6 K	1.394e-05 ± 1.4e-06
478.61 K	1.375e-05 ± 1.4e-06
480.4 K	1.661e-05 ± 1.7e-06
482.16 K	1.922e-05 ± 1.9e-06
483.92 K	2.132e-05 ± 2.2e-06
485.6 K	2.413e-05 ± 2.4e-06
485.7 K	2.415e-05 ± 2.4e-06
487.5 K	2.821e-05 ± 2.8e-06
489.24 K	3.158e-05 ± 3.2e-06
491 K	3.515e-05 ± 3.5e-06
491.02 K	3.534e-05 ± 3.5e-06
492.65 K	4.176e-05 ± 4.2e-06
